From patent US6924309B2 (Children, Youth and Women's Health Service Incorporated, priority 1999, dated 2005)
Converted amounts (≈) assume the structure as drawn. “Also recorded” adds a separate entry of the source. Read-outs that look alike come from different tables or passages of the source. Each block holds one molecule with its values, some of them ahead of it.

Assays:
[1] = Reaction with tert-butyl hydroperoxide to the sulfoxide; type: physicochemical; details: CH2Cl2, RT, after 9 h
Excerpt: To further investigate the possible involvement of hydroperoxide-induced sulfoxide formation in the antioxidant behaviour of the γ-thia and β-thia fatty acids 18, 19, 106, 108, 109 and 112, compounds 108 and 109 (in a ratio of 1:1 in CH2Cl2) were allowed to react with tert-butyl hydroperoxide. [drawing 37]
The reaction was monitored by TLC and ^1H NMR analysis. […] The ^1H NMR spectrum of compound 114 contains two multiplets at δ2.88-3.07 and two doublets at δ3.63-3.86 corresponding to the methylene protons on the carbons adjacent to sulfur.

[2] = Petri-dish thin film autoxidation of arachidonic acid with thia fatty acids and sulfides (HPLC)
Summary of the method: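 Arachidonic acid mixed with each sulfur compound at different ratios, lauric acid as internal standard, cast as thin films on 80 mm glass Petri-dishes. Dishes kept under oxygen in a dark desiccator; residual compounds quantified after 1, 2, 3, 5 and 7 days by reverse-phase HPLC with refractive index detection.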

[3] = system: P. falciparum; details: 20 μg/ml
Protocol: Parasites were treated with 20 μg/ml of compound. Results are means of triplicate assays of one experiment and are consistent with that found in three experiments.

[4] = system: TNF-α; assay: TNF-α production by human peripheral blood leukocytes; type: cell-based; details: Leukocyte, stimulus S. aureus, read-out: % Inhibition (compared to control) of TNF-α
Protocol: (§1) The effects of the nitroalkanes (Lx1-Lx5) on lymphocyte activation and cytokine production were examined. The ability of the PUFA to suppress mitogen-induced proliferation in response to PHA and S. aureus, and to inhibit cytokine production (TNFα and IFNγ), was assessed.

[5] = system: P. berghei; type: in vivo; design: Parasitaemia: unit not given here; details: for Parasitaemia: 40 mg/kg from one day prior to infection, twice a day
Protocol: In other sets of experiments, the effects of Lx3 were examined in vivo in mice infected with P. berghei. FIG. 10 illustrates the effect of Lx3 on the level of P. berghei parasitaemia in the mice. Results are the means ±SEM of five mice per group. Mice were infected intraperitoneally with the parasite and when an appropriate parasitaemia was reached they were treated intravenously with 40 mg/kg weight of MP3.
Mice were treated at one day prior to infection with 2 doses of 40 mg/kg body weight and then another dose 60 min prior to infection (0 time) on the following day. The parasitaemia was checked 4 h later and at the times stipulated in the Table. The animals were treated with either DPC or Lx3 twice a day 30 min after taking a parasitaemia reading. The results are presented as mean ±SEM of parasitaelnia of 4 mice per group.

[6] = system: Plasmodium falciparum isolates 3D7, FC27, K+; assay: Radiometric (3H-hypoxanthine) assay on asexual blood stages of P. falciparum; type: cell-based; details: for EC50: Plasmodium falciparum, read-out: EC50 against P. falciparum
Protocol: Using the radiometric assay^(36), the effects of the Lx compounds were examined for antimalarial activity. The Plasmodium falciparum isolates used were 3D7, FC27, K^1 and K^+. These were maintained in human blood group O^+ erythrocytes essentially as described previously using RPM-1640 (HEPES modification) supplemented with 0.25% D-glucose, 0.2% Tess buffer (Sigma Chemical Co, Lt Louis, Mo.) and 10% heat inactivated (56° C., 20 min) human blood group AB serum. Cultures were maintained in tissue culture flasks (Corning, N.Y.) at 37° C. under an atmosphere of 1% 2, 5% CO2 in N2. P. falciparum cultures containing approximately 3.0:% parasitaemia were adjusted to 1×10^8 erythrocytes/ml. To 50 μl of the parasite-erythrocyte culture (5×10^6 erythrocytes) in wells of 96-well microdilution plates wvas added 50 μl of the designated concentration of fatty acid or equivalent amounts of solutions or media. The treated cultures were incubated at 37° C. for 4 h and then pulsed with 50 μl (2.5 μCi) of ^3H-hypoxanthine. After a further 18 h incubation the parasites-erythrocytes were harvested onto glass fibre filter papers using a cell harvester. The amount of radioactivity incorporated was measured in a β-counter. The results have been expressed as % inhibition of parasite growth i.e. the dpm in the fatty acid diluent−dpm in the fatty acid treated cultures/dpm in diluent×100.

[7] = system: parasitised red blood cells (K+ strain); assay: Incorporation of Lx3 into parasitised red blood cells; type: cell-based, P. falciparum
Protocol: Red blood cells or parasitised red blood cells (K+ strain, 9.25% parasitaenia) (5×10^8 cells) were incubated with 200 μg of Lx3 in 10 mls of HBSS at 37° C. for 4 h. The incubate was centrifuged (3,000 rpm for 10 min) and the medium aspirated. The cell pellet was washed 3 times with 5 ml of HBSS with centrifugation. Lipids were extracted from the cell pellet and neutral lipids, phospholipids and unesterffied Lx3 were resolved by thin-layer chromatography. The neutral lipid and phospholipid samples were transesterified to release any bound Lx3. The amount of Lx3 associated with the unesterifield, neutral lipid and phospholipid fractions was quantitated by gas-liquid chromatography using nonadecanoic acid (nonadecylic acid (19:0)) methyl ester (48 nmol) as a reference standard. For definitive identification of Lx3 and possible products (elongation, de-saturation, shorter-chain products), a combined gas-liquid chromatography-mass spectrometry (GC-MS) technique was employed. FIG. 6 is the GC-MS (expanded view) of Lx3 isolated from parasitised RBC. The mass spectrum of each peak unambiguously identifies 19:0 and Lx3 (19:3(n-6)-N02) respectively. […] No Lx3 was esterified in neutral lipids and phospholipids (Table 4). It is important to note that parasitised red blood cells took up approximately 6 times more Lx3 than non-parasitised cells. […] The lack of derivatisation or incorporation of Lx3 into neutral lipids and phospholipids is almost certainly due to Lx3 not having a carboxylic acid group which is mandatory for the conversion of a fatty acid to its coenzyme A ester.

[8] = Paw oedema; details: in vivo
[9] = system: IFN-γ; assay: IFN-γ production by human peripheral blood leukocytes; type: cell-based; details: Leukocyte, stimulus PHA, read-out: % Inhibition (compared to control) of IFN-γ
Protocol: as §1

[10] = molecular target: T1, 15-LO (Glycine max, UniProt P08170); assay: Effect on 15-LO catalysed oxidation of arachidonic acid; type: biochemical, soybean
T1 construct: purchased Sigma Chemical Company
T1 sequence (P08170 1-839): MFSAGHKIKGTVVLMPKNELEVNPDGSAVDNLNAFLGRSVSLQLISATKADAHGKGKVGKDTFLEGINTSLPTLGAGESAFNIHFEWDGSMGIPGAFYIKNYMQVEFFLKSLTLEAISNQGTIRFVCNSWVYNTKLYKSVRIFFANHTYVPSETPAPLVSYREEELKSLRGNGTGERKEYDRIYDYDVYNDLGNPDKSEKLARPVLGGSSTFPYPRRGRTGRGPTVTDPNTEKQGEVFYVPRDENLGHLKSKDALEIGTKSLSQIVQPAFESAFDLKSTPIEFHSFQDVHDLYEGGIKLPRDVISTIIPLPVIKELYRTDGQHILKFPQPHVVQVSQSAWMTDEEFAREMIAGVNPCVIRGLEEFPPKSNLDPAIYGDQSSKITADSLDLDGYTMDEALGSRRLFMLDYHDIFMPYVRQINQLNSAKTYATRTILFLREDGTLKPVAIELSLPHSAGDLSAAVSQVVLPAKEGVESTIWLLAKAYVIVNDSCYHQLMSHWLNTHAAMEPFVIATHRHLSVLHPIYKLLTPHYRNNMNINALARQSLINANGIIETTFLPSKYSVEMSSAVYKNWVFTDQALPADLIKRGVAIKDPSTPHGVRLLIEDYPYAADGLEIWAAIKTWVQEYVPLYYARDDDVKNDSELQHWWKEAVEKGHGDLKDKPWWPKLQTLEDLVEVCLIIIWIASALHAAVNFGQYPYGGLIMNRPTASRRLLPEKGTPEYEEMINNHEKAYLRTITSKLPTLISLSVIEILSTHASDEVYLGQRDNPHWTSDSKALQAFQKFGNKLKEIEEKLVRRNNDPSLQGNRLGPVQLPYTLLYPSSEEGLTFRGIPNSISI

[11] = system: Red blood cells; assay: Incorporation of Lx3 into normal red blood cells; type: cell-based; details: 200 μg Lx3, 37° C., 4 h
Protocol: Red blood cells or parasitised red blood cells (K+ strain, 9.25% parasitaenia) (5×10^8 cells) were incubated with 200 μg of Lx3 in 10 mls of HBSS at 37° C. for 4 h. The incubate was centrifuged (3,000 rpm for 10 min) and the medium aspirated. The cell pellet was washed 3 times with 5 ml of HBSS with centrifugation. Lipids were extracted from the cell pellet and neutral lipids, phospholipids and unesterffied Lx3 were resolved by thin-layer chromatography. The neutral lipid and phospholipid samples were transesterified to release any bound Lx3. The amount of Lx3 associated with the unesterifield, neutral lipid and phospholipid fractions was quantitated by gas-liquid chromatography using nonadecanoic acid (nonadecylic acid (19:0)) methyl ester (48 nmol) as a reference standard. For definitive identification of Lx3 and possible products (elongation, de-saturation, shorter-chain products), a combined gas-liquid chromatography-mass spectrometry (GC-MS) technique was employed. FIG. 6 is the GC-MS (expanded view) of Lx3 isolated from parasitised RBC. The mass spectrum of each peak unambiguously identifies 19:0 and Lx3 (19:3(n-6)-N02) respectively. […] No Lx3 was esterified in neutral lipids and phospholipids (Table 4). It is important to note that parasitised red blood cells took up approximately 6 times more Lx3 than non-parasitised cells. […]

[12] = ratio arachidonic acid:compound 1:1, 1 day
[13] = ratio arachidonic acid:compound 1:1, 2 days

- Conversion to the sulfoxide by tert-butyl hydroperoxide [1]: 55%
Structure (SMILES): CCCCCCCCCCCCCCSCC(=O)O [Compound 109, 2-Tetradecylthioacetic acid]
- Antioxidant effect on autoxidation of arachidonic acid (in words) [2]: not significantly inhibited
- Arachidonic acid (%) recovered following autoxidation in the presence of the compound [2, 12]: 53%
- Compound (%) recovered following autoxidation with arachidonic acid [2, 12]: 50%
- Arachidonic acid (%) recovered following autoxidation in the presence of the compound [2, 13]: 10%
- Compound (%) recovered following autoxidation with arachidonic acid [2, 13]: 16%
- Compound (%) recovered following autoxidation with arachidonic acid ([2]; ratio arachidonic acid:compound 1:1, 3 days): 17%
- Compound (%) recovered following autoxidation with arachidonic acid ([2]; ratio arachidonic acid:compound 1:1, 5 days): 17%
- Compound (%) recovered following autoxidation with arachidonic acid ([2]; ratio arachidonic acid:compound 1:1, 7 days): 16%

- EC50 ([6]; 3D7, isolate FC27): 6 µg/mL (≈ 20.4 µM)
- EC50 ([6]; 3D7, isolate K+): 3 µg/mL (≈ 10.2 µM)
- EC50 ([6]; isolate 3D7): 2 µg/mL (≈ 6.82 µM)
- Recovered cellular Lx3, unesterified Lx3 ([7]; parasitised red blood cells, 200 μg Lx3, 37° C., 4 h): 12.9 ± 0.4 % of total added
- Effect on 15-LO catalysed oxidation of AA [10]: Nil
- Recovered cellular Lx3, unesterified Lx3 [11]: 2.1 ± 0.2 % of total added
Structure (SMILES): CCCCC/C=C\C/C=C\C/C=C\CCCCC[N+](=O)[O-] [Lx3, (z,z,z)-1-Nitro-6,9,12-octadecatriene]
- Morphology of parasites in treated cultures [3]: degenerate mature rings, trophozoites and shizonts
- inhibition at 20 µM [4]: 48.2%
- Tolerability in mice ([5]; intravenous 40 mg/kg): tolerated Lx3 quite well
- Parasitaemia ([5]; mice, 4 h after infection): 0.18 ± 0.05
- Parasitaemia ([5]; mice, 22 h after infection): 0.30 ± 0.10
- Parasitaemia ([5]; mice, 28 h after infection): 0.14 ± 0.05
- Parasitaemia ([5]; mice, 46 h after infection): 0.40 ± 0.14
- Change in circulating parasites (parasitaemia) ([5]; mice, single intravenous dose 40 mg/kg, within 5 h after injection): marked drop in circulating parasites
- Antimalarial activity (in words) [6]: very active
- Activity against a chloroquine resistant isolate ([6]; chloroquine resistant isolate): active
- Reduction of antimalarial activity by human serum ([6]; compound 20 μg/ml, presence of human serum): did not affect the activity; also recorded: not inhibited by serum
- Antimalarial activity on P. falciparum 3D7 (FIG. 1, in words) ([6]; isolate 3D7): greatest activity
- Form of the compound taken up by the cells ([7]; GC-MS): remained exclusively in the unesterified form
- Elongation, chain-shortening or de-saturation products detected ([7]; either cell population, GC-MS): No elongation, chain-shortening or de-saturation products
- Effect in paw oedema [8]: either inflammatory or anti-inflammatory
- inhibition at 20 µM [9]: 37.6%
